Changes are numbered by the printed parent chain.
Experiments:
wild-type Ty1 RT = target: T1, wild-type Ty1 RT (Saccharomyces cerevisiae, UniProt P47098); experiment: biochemical
T1 sequence (P47098 1218-1755 limits assumed): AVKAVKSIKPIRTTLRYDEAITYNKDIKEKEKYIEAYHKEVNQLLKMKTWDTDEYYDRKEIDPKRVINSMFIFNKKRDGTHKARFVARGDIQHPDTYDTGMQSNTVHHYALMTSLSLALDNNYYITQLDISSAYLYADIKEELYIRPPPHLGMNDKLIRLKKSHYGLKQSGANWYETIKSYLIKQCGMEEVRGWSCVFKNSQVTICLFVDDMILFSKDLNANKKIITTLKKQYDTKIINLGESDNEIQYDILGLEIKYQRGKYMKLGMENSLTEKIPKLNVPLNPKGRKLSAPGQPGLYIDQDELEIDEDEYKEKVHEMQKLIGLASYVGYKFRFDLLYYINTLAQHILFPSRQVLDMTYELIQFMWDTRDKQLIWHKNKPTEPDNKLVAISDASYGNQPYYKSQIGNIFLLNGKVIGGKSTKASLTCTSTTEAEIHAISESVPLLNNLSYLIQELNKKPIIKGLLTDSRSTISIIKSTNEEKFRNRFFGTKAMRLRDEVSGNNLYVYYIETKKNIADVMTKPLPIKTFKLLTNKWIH
Experimental: (§1) VLP isolation and analysis. Yeast cells harboring pGTy1-H3-mhis3AI were grown in 2% galactose at 22° C. for approximately 24 hr. Cell pellets from these 0.5 L cultures were resuspended in 5 ml buffer B (Eichinger and Boeke, Cell 54: 955-966, 1988, which is incorporated herein by reference) and VLPs were isolated. […] Reactions were set up on ice, carried out for 1 hr at 22° C. and kept on ice while being spotted onto DE81 anion-exchange paper (Whatman International Ltd.; Maidstone, England).
(§2) Protein purification and analysis. Recombinant Ty1 RT (Wilhelm et al., supra, 2000) containing a cleavable N-terminal GST-tag was expressed in E. coli and purified first by affinity chromatography and then by ion exchange chromatography, as described for HIV-1 RT (Le Grice et al., Meth. Enzymol. 262: 130-44, 1995, which is incorporated herein by reference). The GST-tagged protein was eluted from a Glutathione Sepharose 4B™ gel (Amersham) gravity column with buffer (50 mM HEPES-KOH, pH 7.8, 200 mM KCl, 10% glycerol and 2 mM DTT) containing 30 mM reduced glutathione. 50 mM HEPES-KOH, pH 7.0 with 10% glycerol was added to the protein solution to lower the pH to 7.1 and the KCl concentration to 25 mM. The recombinant Ty1 RT was further purified over a Resource S™ (Amersham) cation-exchange column using a linear KCl gradient (25-500 mM). […] Purified hetero-dimeric HIV-1 RT (Le Grice et al., supra, 1995) was acquired through the AIDS Research and Reference Reagent Program, Division of AIDS, NIAID, NIH. Purified AMV RT was purchased from Roche Molecular Biochemicals (Mannheim, Germany). The RT assays performed on the purified RTs were carried out as described above, except in the presence of 20 mM KCl, and HIV-1 RT assays were incubated at 37° C. Each reaction contained 45 ng of purified recombinant Ty1 RT or 30 ng of heterodimeric HIV-1 RT.

Ty1 RT [1] = target: T2, Ty1 RT (Saccharomyces cerevisiae, UniProt P47098); settings: for Proposed activity of Ty1 RT, same metal at A site and B site: same ion at A site and B site
T2 sequence (P47098 1218-1755 limits assumed): T1 sequence (P47098 1218-1755 limits assumed)

D211N Ty1 RT = target: T3, D211N Ty1 RT (Saccharomyces cerevisiae, UniProt P47098, D1428N); experiment: RT assay on purified RT, metal ion competition and metal activation kinetics
T3 sequence (P47098 1218-1755 D1428N): T1 sequence (P47098 1218-1755 limits assumed) with D211N
Text: Plasmid constructions. Plasmid c24-2I was generated by ligating the Stu I -Avr II fragment (4.3 kb) of c24-2 with the Sma I—Xba I fragment (6.0 kb) of pRS415 (LEU2 CEN6; Sikorski and Hieter, Genetics 122: 19-27, 1989, which is incorporated herein by reference). To simplify the cloning of the single amino-acid-substitution mutations into the PMR1 gene, c24-2L was constructed by removing the Xho I—Nde I fragment (1.2 kb) from c24-2I, filling in the ends with Klenow (New England Biolabs; Beverly Mass.), and ligating the blunt ends to recircularize the plasmid. Alanine substitution mutations, D778A and Q783A, were generated in the native PMR1 gene by replacing the Pst I—Sal I fragment (1.1 kb) of c24-2L with the corresponding fragment harboring the respective Pmr1p substitution mutation in the YEpHR1 backbone (Wei et al., J. Biol. Chem. 275: 23927-23932, 2000, which is incorporated herein by reference). The D53A substitution mutation was introduced into c24-2L by swapping in the Xba I fragment (0.3 kb) containing the Pmr1p substitution mutation in the YEpHR1 backbone (Wei et al., supra, 1999). Recombinant Ty1 RT (Wilhelm et al., supra, 2000) was PCR amplified and subcloned into the BamH I and Xho I sites of pGEX-4T-3 (Amersham Pharmacia Biotech; Piscataway N.J.). The D211N substitution mutation was generated by replacing the Sph I-Hind III fragment (0.4 kb) of the wild-type Ty1 RT expression construct with that of pJEF724 DD-DN (Uzun and Gabriel, supra, 2001).
as §1, §2

Ty1 RT [2] = target: Ty1 RT (Saccharomyces cerevisiae, UniProt P47098, D1428N); settings: Mn^2+ at A site, Mg^2+ at B site; unlikely for Wt.
Ty1 RT (Saccharomyces cerevisiae, UniProt P47098, D1428N), sequence (P47098 1103-1755 D1428N): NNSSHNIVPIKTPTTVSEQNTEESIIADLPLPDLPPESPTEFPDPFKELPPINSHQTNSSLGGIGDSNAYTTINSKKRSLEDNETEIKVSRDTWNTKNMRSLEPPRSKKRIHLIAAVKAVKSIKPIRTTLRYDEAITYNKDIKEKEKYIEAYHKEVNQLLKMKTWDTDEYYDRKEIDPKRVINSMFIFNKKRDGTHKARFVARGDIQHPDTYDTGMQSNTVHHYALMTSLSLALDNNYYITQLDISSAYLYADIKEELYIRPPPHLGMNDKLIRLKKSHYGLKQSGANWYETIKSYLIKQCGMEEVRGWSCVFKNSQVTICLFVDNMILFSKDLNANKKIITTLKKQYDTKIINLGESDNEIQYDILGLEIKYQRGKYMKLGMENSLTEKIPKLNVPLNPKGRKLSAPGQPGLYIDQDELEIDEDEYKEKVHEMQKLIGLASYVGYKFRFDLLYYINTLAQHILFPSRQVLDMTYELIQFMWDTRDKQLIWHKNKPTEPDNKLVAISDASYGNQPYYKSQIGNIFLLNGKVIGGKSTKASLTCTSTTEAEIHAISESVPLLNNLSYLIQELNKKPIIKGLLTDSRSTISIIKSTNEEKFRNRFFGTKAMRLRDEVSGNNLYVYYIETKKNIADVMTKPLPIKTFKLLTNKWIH

Ty1 VLPs = Ty1 VLPs (Saccharomyces cerevisiae, UniProt P47098)
Experimental: as §1

M-MuLV RT = settings: purified M-MuLV RT, with or without its associated RNase H
Experimental: as §1, §2

hetero-dimeric HIV-1 RT = hetero-dimeric HIV-1 RT (Human immunodeficiency virus type 1 group M subtype B, UniProt P04585); settings: purified hetero-dimeric HIV-1 RT; poly(rC) template; excess Mg^2+; 37° C.
Experimental: as §1, §2

AMV RT = settings: purified AMV RT; excess Mg^2+
Experimental: as §1, §2

[3] = Wt. Ty1 RT, fit to Hill equation
[4] = D211N Ty1 RT, fit to Hill equation

| Structure (SMILES) | Proposed activity of Ty1 RT, same metal at A site and B site (Ty1 RT [1]) | Kd (wild-type Ty1 RT) [mM] | Proposed divalent cation binding affinity, A site (wild-type Ty1 RT; Wt. Ty1 RT) | Proposed divalent cation binding affinity, B site (wild-type Ty1 RT; Wt. Ty1 RT) | n (Hill coefficient) of metal activation (wild-type Ty1 RT; [3]) | Kd (D211N Ty1 RT) [mM] | Proposed divalent cation binding affinity, A site (D211N Ty1 RT; D211N Ty1 RT) | Proposed divalent cation binding affinity, B site (D211N Ty1 RT; D211N Ty1 RT) | n (Hill coefficient) of metal activation (D211N Ty1 RT; [4]) | also measured |
| --- | --- | --- | --- | --- | --- | --- | --- | --- | --- | --- |
| [Ca+2].[Cl-].[Cl-] [Ca^2+, CaCl2, reference compound] | – | – | – | – | – | – | – | – | – | Inhibition of Ty1 RT in control competition experiment (wild-type Ty1 RT; Ca^2+ substituted for Mn^2+, in presence of Mg^2+ (FIG. 4C)): no significant inhibition |
| [Mg+2] [Mg^2+, MgCl2] | high | 0.13 ± 0.04 | very high affinity for Mg^2+ | low affinity for Mg^2+ | 1.7 ± 0.1 | 6.3 ± 0.2 | very low affinity for Mg^2+ | low affinity for Mg^2+ | 2.1 ± 0.1 | – |
| [Mn+2] [Mn^2+, MnCl2] | low | 19.9 ± 1.6 | very low affinity for Mn^2+ | high affinity for Mn^2+ | 2.3 ± 0.2 | 0.02 ± 0.003 | very high affinity for Mn^2+ | high affinity for Mn^2+ | 2.1 ± 0.1 | Proposed activity of Ty1 RT, Mn^2+ at A site and Mg^2+ at B site (Ty1 RT [2]): high; Proposed activity of Ty1 RT, Mg^2+ at A site and Mn^2+ at B site (Ty1 RT [1]; Mn^2+ at B site, Mg^2+ at A site, unlikely for D211N): low; kcat of metal activation (wild-type Ty1 RT; [3]): 0.000156 ± 1.9e-05 s⁻¹; Mn^2+-dependent inhibition with DNA template (wild-type Ty1 RT; purified recombinant Ty1 RT, poly(dC) substituted for poly(rC)): Mn^2+-dependent inhibition was also observed; Ratio of Mn^2+ to Mg^2+ that reduced RT activity by 50% (wild-type Ty1 RT; purified recombinant Ty1 RT, poly(rC) template, excess Mg^2+): 1×10^−3; Ratio of Mn^2+ to Mg^2+ that reduced RT activity by 50% (Ty1 VLPs; RNA-directed DNA polymerization, poly(rC) template, excess Mg^2+): 8×10^−3; Mn^2+-dependent inhibition with DNA template (Ty1 VLPs; poly(dC) substituted for poly(rC)): Mn^2+-dependent inhibition was also observed; Effect of Mn^2+ on RT activity (M-MuLV RT): Increased activity at low Mn^2+ concentrations; Ratio of Mn^2+ to Mg^2+ that reduced RT activity by 50% (hetero-dimeric HIV-1 RT): 7×10^−4; Mn^2+-dependent inhibition of RT activity (AMV RT): Even more dramatic Mn^2+-dependent inhibition; Ratio (Mn^2+ concentration to Mg^2+ concentration) at which the increase in activity peaks (D211N Ty1 RT; D211N RT, Mn^2+ added in presence of Mg^2+): 0.02; kcat of metal activation (D211N Ty1 RT; [4]): 0.000158 ± 8.3e-06 s⁻¹; Inhibition by increasing concentrations of Mn2+ (D211N Ty1 RT; D211N Ty1 RT, printed: in the presence of excess Mn^2+ (FIG. 4D)): not inhibited |
